Test results from ChEMBL document CHEMBL4387741, “Optimization of novel reversible Bruton's tyrosine kinase inhibitors identified using Tethering-fragment-based screens” (Bioorg Med Chem, 2019).

Experiments:
[1] = target: Atypical kinase COQ8B, mitochondrial (Homo sapiens) (UniProt Q96D53); assay: Inhibition of wild-type human full length ADCK4 (M1 to S544 residues) expressed in bacterial expression system at 1 uM by Kinomescan method relative to control
[2] = target: Megakaryocyte-associated tyrosine-protein kinase (Homo sapiens) (UniProt P42679); assay: Inhibition of wild-type human full length CTK (M43 to P508 residues) expressed in mammalian expression system at 1 uM by Kinomescan method relative to control
[3] = test system: Epidermal growth factor receptor (Homo sapiens), P00533 [UNDEFINED MUTATION]; assay: Inhibition of human partial length EGFR S752-I759del mutant expressed in bacterial expression system at 1 uM by Kinomescan method relative to control
[4] = test system: Receptor-type tyrosine-protein kinase FLT3 (Homo sapiens), P36888 [UNDEFINED MUTATION]; assay: Inhibition of human partial length FLT3 ITD/D835V double mutant expressed in bacterial expression system at 1 uM by Kinomescan method relative to control
[5] = target: Rhodopsin kinase GRK1 (Homo sapiens) (UniProt Q15835); assay: Inhibition of wild-type human full length GRK1 (M1 to S563 residues) expressed in mammalian expression system at 1 uM by Kinomescan method relative to control
[6] = target: Mitogen-activated protein kinase kinase kinase 15 (Homo sapiens) (UniProt Q6ZN16); assay: Inhibition of wild-type human partial length MAP3K15 (T625 to L932 residues) expressed in mammalian expression system at 1 uM by Kinomescan method relative to control
[7] = target: Microtubule-associated serine/threonine-protein kinase 1 (Homo sapiens) (UniProt Q9Y2H9); assay: Inhibition of wild-type human partial length MAST1 (S346 to V730 residues) expressed in mammalian expression system at 1 uM by Kinomescan method relative to control
[8] = target: Serine/threonine-protein kinase Nek3 (Homo sapiens) (UniProt P51956); assay: Inhibition of wild-type human full length NEK3 (M1 to R506 residues) expressed in mammalian expression system at 1 uM by Kinomescan method relative to control
[9] = target: Mitogen-activated protein kinase 14 (Homo sapiens) (UniProt Q16539); assay: Inhibition of wild-type human full length p38-alpha (M1 to S360 residues) expressed in bacterial expression system at 1 uM by Kinomescan method relative to control
[10] = target: Serine/threonine-protein kinase PLK2 (Homo sapiens) (UniProt Q9NYY3); assay: Inhibition of wild-type human partial length PLK2 (H58 to F354 residues) expressed in mammalian expression system at 1 uM by Kinomescan method relative to control
[11] = target: Protein kinase C delta type (Homo sapiens) (UniProt Q05655); assay: Inhibition of wild-type human partial length PRKCD (Q328 to D676 residues) expressed in bacterial expression system at 1 uM by Kinomescan method relative to control
[12] = target: Protein kinase C eta type (Homo sapiens) (UniProt P24723); assay: Inhibition of wild-type human partial length PRKCH (S324 to P683 residues) expressed in bacterial expression system at 1 uM by Kinomescan method relative to control
[13] = target: Serine/threonine-protein kinase PRP4 homolog (Homo sapiens) (UniProt Q13523); assay: Inhibition of wild-type human partial length PRP4 (D657 to I1007 residues) expressed in bacterial expression system at 1 uM by Kinomescan method relative to control
[14] = Lipophilicity, log D of the compound; type: physicochemical; settings: octanol/water
[15] = target: Activin receptor type-2A (Homo sapiens) (UniProt P27037); assay: Inhibition of wild-type human ACVR2A (V171 to T499 residues) expressed in bacterial expression system at 10 uM by Kinomescan method relative to control
[16] = test system: ALK tyrosine kinase receptor (Homo sapiens), Q9UM73 [L1196M]; assay: Inhibition of wild-type human partial length ALK L1196M mutant (I1088 to E1409 residues) expressed in mammalian expression system at 10 uM by Kinomescan method relative to control
[17] = target: Cyclin-dependent kinase 5 (Homo sapiens) (UniProt Q00535); assay: Inhibition of wild-type human full length CDK5 (M1 to P292 residues) expressed in bacterial expression system at 10 uM by Kinomescan method relative to control
[18] = target: Cyclin-dependent kinase-like 1 (Homo sapiens) (UniProt Q00532); assay: Inhibition of wild-type human full length CDKL1 (M1 to I358 residues) expressed in mammalian expression system at 10 uM by Kinomescan method relative to control
[19] = target: Dual specificity protein kinase CLK2 (Homo sapiens) (UniProt P49760); assay: Inhibition of wild-type human partial length CLK2 (D144 to R498 residues) expressed in bacterial expression system at 10 uM by Kinomescan method relative to control
[20] = target: Tyrosine-protein kinase Fer (Homo sapiens) (UniProt P16591); assay: Inhibition of wild-type human partial length FER (S542 to T822 residues) expressed in bacterial expression system at 10 uM by Kinomescan method relative to control
[21] = target: Mitogen-activated protein kinase kinase kinase 4 (Homo sapiens) (UniProt Q9Y6R4); assay: Inhibition of wild-type human partial length MAP3K4 (G1319 to E1608 residues) expressed in bacterial expression system at 10 uM by Kinomescan method relative to control
[22] = target: Mitogen-activated protein kinase kinase kinase 9 (Homo sapiens) (UniProt P80192); assay: Inhibition of wild-type human partial length MLK1 (V88 to W426 residues) expressed in bacterial expression system at 10 uM by Kinomescan method relative to control
[23] = target: Serine/threonine-protein kinase 38 (Homo sapiens) (UniProt Q15208); assay: Inhibition of wild-type human partial length NDR1 (N33 to E449 residues) expressed in mammalian expression system at 10 uM by Kinomescan method relative to control
[24] = test system: Phosphatidylinositol 4,5-bisphosphate 3-kinase catalytic subunit alpha isoform (Homo sapiens), P42336 [E545A]; assay: Inhibition of human partial length PIK3CA E545A mutant (R108 to N1068 residues) expressed in mammalian expression system at 10 uM by Kinomescan method relative to control
[25] = target: Proto-oncogene tyrosine-protein kinase ROS (Homo sapiens) (UniProt P08922); assay: Inhibition of wild-type human partial length ROS1 (A1921 to N2240 residues) expressed in bacterial expression system at 10 uM by Kinomescan method relative to control
[26] = target: Ribosomal protein S6 kinase alpha-1 (Homo sapiens) (UniProt Q15418); assay: Inhibition of wild-type human partial length C-terminal RSK1 kinase domain 2 (P360 to L681 residues) expressed in bacterial expression system at 10 uM by Kinomescan method relative to control
[27] = target: Non-receptor tyrosine-protein kinase TYK2 (Homo sapiens) (UniProt P29597); assay: Inhibition of wild-type human partial length TYK2 JH2 pseudokinase domain (G556 to D888 residues) expressed in mammalian expression system at 10 uM by Kinomescan method relative to control

Chain of Mitogen-activated protein kinase kinase kinase 15 (Homo sapiens) (Q6ZN16 whole entry, the tested form may be a part): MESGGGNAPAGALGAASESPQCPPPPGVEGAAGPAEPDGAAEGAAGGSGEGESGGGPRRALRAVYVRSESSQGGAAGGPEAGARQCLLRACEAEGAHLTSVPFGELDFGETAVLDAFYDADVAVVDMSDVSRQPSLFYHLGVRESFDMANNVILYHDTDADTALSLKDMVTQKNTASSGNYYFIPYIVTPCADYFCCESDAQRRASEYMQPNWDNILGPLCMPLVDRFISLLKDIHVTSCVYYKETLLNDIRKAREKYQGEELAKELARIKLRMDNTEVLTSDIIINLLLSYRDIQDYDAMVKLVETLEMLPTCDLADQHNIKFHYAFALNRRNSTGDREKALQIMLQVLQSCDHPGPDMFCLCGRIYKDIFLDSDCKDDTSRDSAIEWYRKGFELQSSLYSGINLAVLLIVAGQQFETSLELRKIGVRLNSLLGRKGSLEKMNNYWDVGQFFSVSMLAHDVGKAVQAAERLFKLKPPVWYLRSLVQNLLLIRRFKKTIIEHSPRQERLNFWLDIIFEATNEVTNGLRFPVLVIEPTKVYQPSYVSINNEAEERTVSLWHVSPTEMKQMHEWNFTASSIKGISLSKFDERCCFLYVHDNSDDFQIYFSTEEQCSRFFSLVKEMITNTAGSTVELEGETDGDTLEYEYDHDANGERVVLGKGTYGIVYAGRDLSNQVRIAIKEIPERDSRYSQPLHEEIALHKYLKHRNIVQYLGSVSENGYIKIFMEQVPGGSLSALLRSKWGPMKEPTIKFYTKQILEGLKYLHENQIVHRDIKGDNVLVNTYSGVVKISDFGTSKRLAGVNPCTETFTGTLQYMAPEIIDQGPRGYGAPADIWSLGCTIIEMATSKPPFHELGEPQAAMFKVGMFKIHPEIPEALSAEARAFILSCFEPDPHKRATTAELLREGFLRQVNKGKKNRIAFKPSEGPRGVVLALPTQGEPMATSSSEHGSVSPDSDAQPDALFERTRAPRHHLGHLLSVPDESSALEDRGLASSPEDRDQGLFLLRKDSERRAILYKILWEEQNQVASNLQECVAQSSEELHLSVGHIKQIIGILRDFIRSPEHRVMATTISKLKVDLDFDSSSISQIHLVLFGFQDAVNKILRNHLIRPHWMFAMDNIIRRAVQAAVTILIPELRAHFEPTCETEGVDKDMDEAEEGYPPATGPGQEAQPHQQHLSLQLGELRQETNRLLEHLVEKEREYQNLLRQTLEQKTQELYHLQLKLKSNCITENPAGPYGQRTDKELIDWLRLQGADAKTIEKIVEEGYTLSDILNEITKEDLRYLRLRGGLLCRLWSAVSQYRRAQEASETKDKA
Chain of Receptor-type tyrosine-protein kinase FLT3 (Homo sapiens), P36888 [UNDEFINED MUTATION] (P36888 whole entry, looked up, stated change not applied, the tested form may be a part): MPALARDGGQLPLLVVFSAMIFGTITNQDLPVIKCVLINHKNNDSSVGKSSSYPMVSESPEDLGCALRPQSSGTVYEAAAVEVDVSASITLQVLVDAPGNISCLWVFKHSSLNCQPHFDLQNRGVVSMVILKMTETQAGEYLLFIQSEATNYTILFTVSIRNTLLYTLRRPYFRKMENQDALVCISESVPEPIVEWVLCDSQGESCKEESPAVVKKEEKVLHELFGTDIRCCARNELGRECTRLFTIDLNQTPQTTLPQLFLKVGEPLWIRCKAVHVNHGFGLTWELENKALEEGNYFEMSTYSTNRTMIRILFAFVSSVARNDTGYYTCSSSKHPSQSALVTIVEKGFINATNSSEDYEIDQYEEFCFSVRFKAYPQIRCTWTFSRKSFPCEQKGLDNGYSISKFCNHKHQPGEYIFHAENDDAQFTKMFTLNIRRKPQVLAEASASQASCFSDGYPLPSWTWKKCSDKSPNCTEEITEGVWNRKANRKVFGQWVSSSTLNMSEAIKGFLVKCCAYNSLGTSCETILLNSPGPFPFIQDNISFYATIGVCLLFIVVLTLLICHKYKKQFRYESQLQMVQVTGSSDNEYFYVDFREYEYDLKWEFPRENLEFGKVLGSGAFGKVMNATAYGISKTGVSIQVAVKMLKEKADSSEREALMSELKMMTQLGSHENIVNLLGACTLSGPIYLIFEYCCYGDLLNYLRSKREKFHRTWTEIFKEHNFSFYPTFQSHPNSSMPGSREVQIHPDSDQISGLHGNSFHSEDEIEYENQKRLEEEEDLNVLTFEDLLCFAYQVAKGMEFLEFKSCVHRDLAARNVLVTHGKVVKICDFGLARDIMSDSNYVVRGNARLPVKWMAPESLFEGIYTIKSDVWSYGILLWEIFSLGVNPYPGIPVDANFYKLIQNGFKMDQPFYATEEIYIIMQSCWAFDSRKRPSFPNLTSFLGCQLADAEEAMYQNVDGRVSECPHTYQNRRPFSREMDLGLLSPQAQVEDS
Chain of Megakaryocyte-associated tyrosine-protein kinase (Homo sapiens) (P42679 whole entry, the tested form may be a part): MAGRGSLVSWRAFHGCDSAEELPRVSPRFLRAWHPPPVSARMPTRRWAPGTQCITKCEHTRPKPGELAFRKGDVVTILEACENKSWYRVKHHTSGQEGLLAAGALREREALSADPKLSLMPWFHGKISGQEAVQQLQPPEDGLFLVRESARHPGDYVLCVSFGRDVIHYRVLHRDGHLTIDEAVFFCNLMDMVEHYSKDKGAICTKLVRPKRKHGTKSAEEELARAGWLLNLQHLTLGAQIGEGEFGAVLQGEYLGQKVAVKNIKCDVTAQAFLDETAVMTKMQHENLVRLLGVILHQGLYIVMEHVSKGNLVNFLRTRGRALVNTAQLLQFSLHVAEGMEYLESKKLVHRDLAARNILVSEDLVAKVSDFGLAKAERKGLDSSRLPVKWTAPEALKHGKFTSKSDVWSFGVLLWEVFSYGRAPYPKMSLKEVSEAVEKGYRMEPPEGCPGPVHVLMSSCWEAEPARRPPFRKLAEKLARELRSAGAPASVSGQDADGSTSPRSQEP
Chain of Rhodopsin kinase GRK1 (Homo sapiens) (Q15835 whole entry, the tested form may be a part): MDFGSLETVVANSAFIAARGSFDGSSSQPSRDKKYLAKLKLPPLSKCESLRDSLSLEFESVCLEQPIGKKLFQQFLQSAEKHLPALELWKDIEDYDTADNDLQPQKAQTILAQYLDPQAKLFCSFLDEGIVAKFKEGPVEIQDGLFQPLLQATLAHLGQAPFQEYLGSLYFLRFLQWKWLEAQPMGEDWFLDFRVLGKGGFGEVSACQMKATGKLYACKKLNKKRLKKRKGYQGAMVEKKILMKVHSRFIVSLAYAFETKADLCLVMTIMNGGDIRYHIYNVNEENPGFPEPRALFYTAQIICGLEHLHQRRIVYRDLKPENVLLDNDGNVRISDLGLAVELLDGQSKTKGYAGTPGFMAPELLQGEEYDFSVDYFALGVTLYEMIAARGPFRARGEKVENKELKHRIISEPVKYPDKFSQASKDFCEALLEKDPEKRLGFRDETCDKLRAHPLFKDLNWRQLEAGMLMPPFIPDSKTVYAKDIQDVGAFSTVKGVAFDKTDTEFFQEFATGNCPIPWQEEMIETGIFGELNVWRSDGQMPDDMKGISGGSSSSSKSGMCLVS
Chain of Protein kinase C delta type (Homo sapiens) (Q05655 whole entry, looked up, the tested form may be a part): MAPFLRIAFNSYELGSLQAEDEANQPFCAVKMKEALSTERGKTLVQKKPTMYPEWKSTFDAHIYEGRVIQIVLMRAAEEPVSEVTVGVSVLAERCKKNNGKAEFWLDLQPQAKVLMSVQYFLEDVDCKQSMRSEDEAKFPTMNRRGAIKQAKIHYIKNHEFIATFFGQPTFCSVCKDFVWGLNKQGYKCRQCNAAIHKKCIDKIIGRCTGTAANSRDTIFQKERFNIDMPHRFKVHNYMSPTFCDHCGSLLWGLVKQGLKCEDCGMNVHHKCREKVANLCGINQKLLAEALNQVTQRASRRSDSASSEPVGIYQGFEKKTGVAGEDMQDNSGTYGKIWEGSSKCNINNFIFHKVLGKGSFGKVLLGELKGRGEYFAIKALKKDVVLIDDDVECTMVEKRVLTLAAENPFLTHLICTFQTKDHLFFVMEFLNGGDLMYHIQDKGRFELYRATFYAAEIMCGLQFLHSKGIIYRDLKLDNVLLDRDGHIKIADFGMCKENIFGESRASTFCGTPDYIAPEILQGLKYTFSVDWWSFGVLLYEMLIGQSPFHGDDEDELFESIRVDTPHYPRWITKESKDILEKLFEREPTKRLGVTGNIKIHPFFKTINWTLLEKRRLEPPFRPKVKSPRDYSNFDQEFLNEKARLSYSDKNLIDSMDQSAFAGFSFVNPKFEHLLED
Chain of Mitogen-activated protein kinase 14 (Homo sapiens) (Q16539 whole entry, the tested form may be a part): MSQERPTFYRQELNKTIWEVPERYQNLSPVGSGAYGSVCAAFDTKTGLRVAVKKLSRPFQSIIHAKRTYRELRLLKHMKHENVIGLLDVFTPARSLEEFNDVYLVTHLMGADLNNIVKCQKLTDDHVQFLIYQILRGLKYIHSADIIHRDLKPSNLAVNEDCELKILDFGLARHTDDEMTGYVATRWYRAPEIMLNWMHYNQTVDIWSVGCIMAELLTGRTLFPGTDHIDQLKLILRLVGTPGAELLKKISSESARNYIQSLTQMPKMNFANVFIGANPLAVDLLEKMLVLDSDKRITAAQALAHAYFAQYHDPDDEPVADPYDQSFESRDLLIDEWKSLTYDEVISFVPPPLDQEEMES
Chain of Serine/threonine-protein kinase Nek3 (Homo sapiens) (P51956 whole entry, the tested form may be a part): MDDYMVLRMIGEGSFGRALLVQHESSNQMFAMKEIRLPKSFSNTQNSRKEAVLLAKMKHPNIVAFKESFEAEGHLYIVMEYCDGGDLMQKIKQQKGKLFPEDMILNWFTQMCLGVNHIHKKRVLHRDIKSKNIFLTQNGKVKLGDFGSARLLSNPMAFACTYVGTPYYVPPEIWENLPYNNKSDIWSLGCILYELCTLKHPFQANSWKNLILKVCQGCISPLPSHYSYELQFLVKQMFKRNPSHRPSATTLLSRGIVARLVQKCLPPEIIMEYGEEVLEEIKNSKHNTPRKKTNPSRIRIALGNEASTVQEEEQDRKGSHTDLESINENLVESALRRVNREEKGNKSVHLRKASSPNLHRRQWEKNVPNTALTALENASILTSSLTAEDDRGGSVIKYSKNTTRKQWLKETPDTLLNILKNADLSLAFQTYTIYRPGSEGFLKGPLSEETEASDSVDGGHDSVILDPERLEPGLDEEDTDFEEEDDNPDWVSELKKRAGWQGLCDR

O=C(Nc1cccc([C@@H]2CN(c3ncnc4[nH]ccc34)CCN2CCO)c1)Nc1c(F)cccc1N1CCCC1
inhibition [1]: 92%
inhibition [2]: 81%
inhibition [3]: 100%
inhibition [4]: 3.5%
inhibition [5]: 78%
inhibition [6]: 74%
inhibition [7]: 93%
inhibition [8]: 65%
inhibition [9]: 100%
inhibition [10]: 87%
inhibition [11]: 85%
inhibition [12]: 80%
inhibition [13]: 92%
logD [14]: 2.6

O=C(Nc1cccc([C@H]2CCCN(c3ncnc4[nH]ccc34)C2)c1)Nc1ccccc1N1CCCC1
inhibition [15]: 100%
inhibition [16]: 63%
inhibition [17]: 92%
inhibition [18]: 74%
inhibition [19]: 53%
inhibition [20]: 80%
inhibition [21]: 87%
inhibition [22]: 59%
inhibition [23]: 57%
inhibition [24]: 58%
inhibition [25]: 72%
inhibition [26]: 60%
inhibition [27]: 50%
